In patent US20180185360A1, “CGRP RECEPTOR ANTAGONIST COMPOUNDS FOR TOPICAL TREATMENT OF SKIN DISORDERS” (GALDERMA RESEARCH & DEVELOPMENT, priority 2015, published 2018):

Assays:
[1] = clinical development discontinued; cited from earlier work
[2] = test system: αCGRP-induced skin blood perfusion increase; experiment: CGRP-induced mice model of vasodilatation (Laser Doppler skin blood perfusion, right ear); format: in vivo, BALB/c mice; settings: for decrease of the CGRP flush (AUC skin blood perfusion 0 to 15 min): topical, 90 min prior to αCGRP 20 μg/kg i.v.
Procedure: (§1) This study has been conducted on BALB/c mice, 5 mice per group have been used.
Body temperature was maintained at 35° C.-37° C. using an automated heating pad. Images were obtained from Laser Doppler perfusion imaging PIM3 (Perimed, France). For each mouse, the skin blood perfusion was evaluated every minute on the right ear. The laser beam of the PIM3 scanned a skin area of 2×2 cm. Prior to the treatment, 2 scans were performed.
The duration of the recording was 22 minutes in total.
The blood perfusion is mapped as colour coded images at intervals of 1 min. For each mouse ear, the area corresponding to the internal part of the ear is defined and adjusted for each image. From this selected area, we take the highest of the first two images as the background of blood perfusion (I ref). The background value is then subtracted from the next images of the kinetic.
The software calculates the erythematous surface (S) and the mean of the blood perfusion intensity (I) in this surface for the region of interest for all the images. […] For each time of kinetic, the relative area of blood perfusion is calculated as follow: Relative area of perfusion=(I/I ref)×S

[3] = test system: imiquimod (Aldara) induced psoriasiform skin inflammation; experiment: Imiquimod induced psoriasiform mice model; format: in vivo, Balb/c mice; settings: CD10192/41 at 2% topical twice daily, 2 h before and 6 h after Aldara
Procedure: Imiquimod psoriasiform model has been induced by daily topical application of Aldara (3.18 mg of imiquimod) for 3 or 7 days on the shaved back skin of Balb/c mice. The pharmacodynamic analysis were performed by using a transcriptional analysis at D4, a histological analysis at D4 and D8, a cells analysis at D8 and a Cytokines analysis at D8. • 1.2. Compounds • 1.2.1. Imiquimod
Imiquimod is sold under the name Aldara™ 5% by 3M-Pharmaceutical. 63.5 mg of Aldara cream is applied on the back skin of the mice, representing 3.2 mg of active compound. • 1.2.2. MK3207 (CD10192/41)
MK3207 compound is dissolved in PG/Ethanol 96 (30/70) and applied twice daily 2 h 00 before and 6 h 00 after Aldara treatment. • 1.2.3. Vehicles
PG/Ethanol (30/70) is used as a vehicle. • 1.2.4. Positive Control
CD0153F (Betamethasone valerate) at 0.01% (0.210 mM) in acetone by topical route is used as positive control. • 1.3. Mice
Balb/c mice strain has been used for the study. These animals have been obtained from controlled breeding and were specific pathogen free. The animals have been provided by Janvier SAS, France. • 1.4. Protocol […]
At day 4 skin biopsies were collected for quantifying gene expression of the inflammatory response via RT-PCR and for measuring epidermis thickness via histological stained slides (HE). […]

[4] = Skin concentration two hours after single topical application on the mouse ear; format: in vivo, BALB/c mice; settings: 0.003% to 3%
Source text: as §1
At the end of the scan, blood is collected from the abdominal artery on anesthetized animals. The animals are then euthanatized and the treated ear collected and weighted. Plasma and ear are snapped frozen.

[5] = test system: Dermatophagoides farinae (Der f)-induced AD-like skin inflammation; experiment: Der f-induced atopic dermatitis mouse model; format: in vivo, Balb/c mice
Procedure: Der f has been purchased from Greer Laboratories and a Der f solution has been prepared in 70% DMSO in MilliQ water. 375 μg of Der f has been applied during 7 weeks on the left ear of mice. Compounds to be tested were applied every day of the week except during the weekend, on the Der f treated ear from week 4 until day 44. • 1.2. Compounds • 1.2.1. MK3207 (CD10192/41) MK3207 (CD10192/41) has been provided by Galderma and 3% of MK3207 (CD10192/41) solutions in ethanol have been prepared. • 1.2.2. Triamcinolone Acetonide Triamcinolone acetonide has been chosen as positive control for the Der f model. 0.01% of triamcinolone acetonide solution in ethanol has been used. • 1.2.3. Ethanol Ethanol 100 has been chosen as a vehicle to solubilize the compounds. • 1.3. Mice Balb/c mice strain has been used for the study. These animals have been obtained from controlled breeding and were specific pathogen free. The animals have been provided by Janvier SAS, France. • 1.4. Protocol AD-like lesions have been induced by topical application of 375 μl of Der f solution on each side of the left ear for 7 weeks at day 1, day 8, day 15, day 22, day 29, day 36 and day 43. Mice have been treated from day 20 to day 43 five days by week with the different solutions administrated by the topical route. Measurement of ear swelling has been monitored 24 hours after each allergen application. After day 19, ear swelling has been daily measured before compound application. After mouse euthanasia, at Day 44 the left ear has been collected and has been washed in ethanol 70% and has been rinsed in PBS. Skin biopsies of the left ear, have then been collected for cytokines profile quantification with Luminex technique and for the quantification of the eosinophil peroxidase thanks to the ELISA method. Draining lymph nodes have been collected and cultivated a whole night restimulated or not with 0.5 mg/ml of Der f extract before quantifying the number of Der f specific lymphocytes T producing INFγ.

[6] = MK3207 3% topical, day 44, ear skin biopsies, Luminex

SMILES: O=C(CN1C(=O)C2(CCCC2)NC[C@H]1c1cc(F)cc(F)c1)Nc1ccc2c(c1)C[C@@]1(C2)C(=O)Nc2ncccc21 [MK3207, 2-[(8R)-8-(3,5-difluorophenyl)-10-oxo-6,9-diazaspiro[4.5]dec-9-yl]-N-[(2R)-2′-oxo-1,1′,2′,3-tetrahydrospiro[indene-2,3′-pyrrolo[2,3-b]pyridin]-5-yl]acetamide]
- toxicity associated with oral use [1]: severe hepatotoxicity
- decrease of the CGRP flush (AUC skin blood perfusion 0 to 15 min) ([2]; MK3207 0.003% in ethanol, NS, p=0.2259): 31%
- decrease of the CGRP flush (AUC skin blood perfusion 0 to 15 min) ([2]; MK3207 0.03% in ethanol, NS, p=0.0567): 49%
- decrease of the CGRP flush (AUC skin blood perfusion 0 to 15 min) ([2]; MK3207 0.3% in ethanol, p=0.0112): 70%
- decrease of the CGRP flush (AUC skin blood perfusion 0 to 15 min) ([2]; MK3207 3% in ethanol, p=0.0083): 80%
- inhibition of αCGRP-induced increase in skin blood perfusion, dose dependence ([2]; topical 0.003% to 3%, 90 minutes prior to αCGRP, p=0.0017): inhibited this increase in a dose-dependent manner
- reduction of the epidermis thickness ([3]; day 4): 33%
- reduction of the number of IL17-production within the γδ T cells ([3]; day 8): 55%
- detection in skin samples [4]: detected in skin samples at all doses tested
- eosinophil peroxidase production (EPX) ([5]; MK3207 3% topical, day 44, ear skin biopsies, ELISA): reduction
- production of IL17A [5, 6]: significantly reduced
- production of IL-4 [5, 6]: significantly reduced
- production of IL-5 [5, 6]: significantly reduced
- production of IL-13 [5, 6]: significantly reduced
- production of TNFα [5, 6]: significantly reduced
- production of IFNγ by lymphocyte T cells ([5]; draining lymph nodes restimulated with Der f, MK3207 3%, triamcinolone acetonide 0.01% topical): decrease
- ear swelling ([5]; topical MK3207, as soon as day 27 with a similar effect until day 43): decrease
- ear swelling / ear edema ([5]; topical in ethanol, MK3207 3% (day 44), triamcinolone acetonide 0.01%): decrease

SMILES: NCCCC[C@H](NC(=O)[C@@H](Cc1cc(Br)c(O)c(Br)c1)NC(=O)N1CCC(N2Cc3ccccc3NC2=O)CC1)C(=O)N1CCN(c2ccncc2)CC1 [olcegepant, reference compound]
- toxicity associated with oral use [1]: severe hepatotoxicity

SMILES: O=C(N[C@@H]1CC[C@@H](c2cccc(F)c2F)CN(CC(F)(F)F)C1=O)N1CCC(n2c(=O)[nH]c3ncccc32)CC1 [telcagepant, reference compound]
- toxicity associated with oral use [1]: severe hepatotoxicity
